ChEMBL document CHEMBL1201862, “PubChem BioAssay data set” (2004)
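1) Cells in 96-well plates. 2) Compound, 48 h, 5 concentrations. 3) Linear interpolation between surrounding doses. 4) Unreached endpoint = highest concentration. At the GI50, growth is halved.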 Calls of active or inactive are those of the source. Cut-off read from the data, not from the text of the source: active = GI50 up to about 1.1 µM and inactive = higher.

Columns and labels:
Experiment in all cases: inhibition of tumour cell growth, NCI panel, 48 h
786-0 = test system: 786-0
ACHN = test system: ACHN
EKVX = test system: EKVX
HL-60 = test system: HL-60
HT-29 = test system: HT-29
K562 = test system: K562
LOX IMVI = test system: LOX IMVI
NCI-H226 = test system: NCI-H226
NCI-H23 = test system: NCI-H23
NCI-H522 = test system: NCI-H522
SN12C = test system: SN12C
SW-620 = test system: SW-620
DU-145 = test system: DU-145
HCC 2998 = test system: HCC 2998
NCI-H460 = test system: NCI-H460
SK-MEL-5 = test system: SK-MEL-5
BT-549 = test system: BT-549
NCI/ADR-RES = test system: NCI/ADR-RES
A498 = test system: A498

Question: With `O=C(NCCc1ccccc1)C1C(=O)C(=O)N(CCc2ccccc2)C1=O` (stereo not given) as the compound, how does the GI50 (786-0) read?
Answer: > 100 µM (inactive)

Question: What about the GI50 (ACHN) of the same compound?
Answer: > 100 µM (inactive)

Question: And the GI50 (EKVX)?
Answer: > 100 µM (inactive)

Question: What about the GI50 (HL-60) of the same compound?
Answer: > 100 µM (inactive)

Question: What about the GI50 (HT-29) of the same compound?
Answer: > 100 µM (inactive)

Question: And the GI50 (K562)?
Answer: > 100 µM (inactive)

Question: And the GI50 (LOX IMVI)?
Answer: > 100 µM (inactive)

Question: What about the GI50 (NCI-H226) of the same compound?
Answer: > 100 µM (inactive)

Question: What about the GI50 (NCI-H23) of the same compound?
Answer: > 100 µM (inactive)

Question: And the GI50 (NCI-H522)?
Answer: > 100 µM (inactive)

Question: And the GI50 (SN12C)?
Answer: > 100 µM (inactive)

Question: What about the GI50 (SW-620) of the same compound?
Answer: > 100 µM (inactive)

Question: How did the GI50 (ACHN) turn out when `COc1nc2ccc(COc3ccc(C(=O)NC(CCC(=O)O)C(=O)O)cc3)cc2nc1OC` (stereo not given) was run?
Answer: > 10 µM (inactive)

Question: What about the GI50 (DU-145) of the same compound?
Answer: > 10 µM (inactive)

Question: What about the GI50 (EKVX) of the same compound?
Answer: > 10 µM (inactive)

Question: And the GI50 (HCC 2998)?
Answer: > 10 µM (inactive)

Question: What about the GI50 (HL-60) of the same compound?
Answer: > 10 µM (inactive)

Question: And the GI50 (HT-29)?
Answer: > 10 µM (inactive)

Question: And the GI50 (K562)?
Answer: > 10 µM (inactive)

Question: What about the GI50 (LOX IMVI) of the same compound?
Answer: > 10 µM (inactive)

Question: What about the GI50 (NCI-H226) of the same compound?
Answer: > 10 µM (inactive)

Question: And the GI50 (NCI-H23)?
Answer: > 10 µM (inactive)

Question: What about the GI50 (NCI-H460) of the same compound?
Answer: > 10 µM (inactive)

Question: What about the GI50 (NCI-H522) of the same compound?
Answer: > 10 µM (inactive)

Question: And the GI50 (SK-MEL-5)?
Answer: > 10 µM (inactive)

Question: And the GI50 (SN12C)?
Answer: > 10 µM (inactive)

Question: And the GI50 (SW-620)?
Answer: > 10 µM (inactive)

Question: What does the source list for `O=C(Sc1c(-c2ccccc2)c(=O)n(-c2ccccc2)c(=S)n1-c1ccccc1)c1ccccc1`?
Answer: GI50 (786-0): > 100 µM (inactive); GI50 (ACHN): > 100 µM (inactive); GI50 (BT-549): 56.1 µM (inactive); GI50 (DU-145): > 100 µM (inactive); GI50 (EKVX): > 100 µM (inactive); GI50 (HL-60): 33.2 µM (inactive); GI50 (HT-29): 57.9 µM (inactive); GI50 (K562): 29 µM (inactive); GI50 (LOX IMVI): 26.4 µM (inactive); GI50 (NCI-H226): > 100 µM (inactive); GI50 (NCI-H23): > 100 µM (inactive); GI50 (NCI-H460): > 100 µM (inactive); GI50 (NCI-H522): 36.1 µM (inactive); GI50 (NCI/ADR-RES): 75 µM (inactive); GI50 (SK-MEL-5): 33.9 µM (inactive); GI50 (SN12C): > 100 µM (inactive); GI50 (SW-620): 28.6 µM (inactive)

Question: For `C=CCOCn1cc(F)c(=O)[nH]c1=O`, which GI50 (786-0) is on record?
Answer: > 100 µM (inactive)

Question: And the GI50 (A498)?
Answer: > 100 µM (inactive)

Question: What about the GI50 (ACHN) of the same compound?
Answer: > 100 µM (inactive)

Question: What about the GI50 (BT-549) of the same compound?
Answer: > 100 µM (inactive)

Question: What about the GI50 (DU-145) of the same compound?
Answer: > 100 µM (inactive)

Question: And the GI50 (EKVX)?
Answer: > 100 µM (inactive)

Question: And the GI50 (HCC 2998)?
Answer: > 100 µM (inactive)

Question: What about the GI50 (HL-60) of the same compound?
Answer: > 100 µM (inactive)

Question: What about the GI50 (HT-29) of the same compound?
Answer: > 100 µM (inactive)

Question: What about the GI50 (K562) of the same compound?
Answer: > 100 µM (inactive)

Question: What about the GI50 (LOX IMVI) of the same compound?
Answer: > 100 µM (inactive)

Question: And the GI50 (NCI-H226)?
Answer: > 100 µM (inactive)

Question: What about the GI50 (NCI-H23) of the same compound?
Answer: > 100 µM (inactive)

Question: What about the GI50 (NCI-H460) of the same compound?
Answer: > 100 µM (inactive)

Question: What about the GI50 (NCI-H522) of the same compound?
Answer: > 100 µM (inactive)

Question: And the GI50 (SK-MEL-5)?
Answer: > 100 µM (inactive)

Question: And the GI50 (SN12C)?
Answer: > 100 µM (inactive)

Question: What about the GI50 (SW-620) of the same compound?
Answer: > 100 µM (inactive)

Question: Which results are given for `c1cc(CSP234N5CCN2CCN3CCN4CC5)ccc1CSP123N4CCN1CCN2CCN3CC4`?
Answer: GI50 (786-0): > 100 µM (inactive); GI50 (ACHN): > 100 µM (inactive); GI50 (BT-549): > 100 µM (inactive); GI50 (DU-145): > 100 µM (inactive); GI50 (EKVX): > 100 µM (inactive); GI50 (HCC 2998): > 100 µM (inactive); GI50 (HL-60): 0.465 µM (active); GI50 (HT-29): 53.2 µM (inactive); GI50 (K562): < 0.01 µM (active); GI50 (LOX IMVI): 49.1 µM (inactive); GI50 (NCI-H23): > 100 µM (inactive); GI50 (NCI-H460): > 100 µM (inactive); GI50 (NCI-H522): 52 µM (inactive); GI50 (NCI/ADR-RES): > 100 µM (inactive); GI50 (SK-MEL-5): > 100 µM (inactive); GI50 (SN12C): > 100 µM (inactive); GI50 (SW-620): > 100 µM (inactive)

Question: Which GI50 (786-0) does the source give for `O=C(O)CN1CCSc2ccccc2CN(CC(=O)O)CCSc2ccccc2C1` here?
Answer: > 100 µM (inactive)

Question: And the GI50 (A498)?
Answer: > 100 µM (inactive)

Question: And the GI50 (ACHN)?
Answer: > 100 µM (inactive)

Question: And the GI50 (EKVX)?
Answer: > 100 µM (inactive)

Question: And the GI50 (HCC 2998)?
Answer: > 100 µM (inactive)

Question: And the GI50 (HL-60)?
Answer: > 100 µM (inactive)

Question: What about the GI50 (HT-29) of the same compound?
Answer: > 100 µM (inactive)

Question: And the GI50 (K562)?
Answer: > 100 µM (inactive)

Question: And the GI50 (LOX IMVI)?
Answer: > 100 µM (inactive)

Question: And the GI50 (NCI-H23)?
Answer: > 100 µM (inactive)

Question: What about the GI50 (NCI-H460) of the same compound?
Answer: > 100 µM (inactive)

Question: And the GI50 (NCI-H522)?
Answer: > 100 µM (inactive)

Question: And the GI50 (SK-MEL-5)?
Answer: > 100 µM (inactive)

Question: And the GI50 (SN12C)?
Answer: > 100 µM (inactive)

Question: And the GI50 (SW-620)?
Answer: > 100 µM (inactive)

Question: `CC(=O)O[C@H]1CC[C@@]2(C)C(=CC[C@H]3C4=CC=C(C(C)=O)[C@@]4(C)CCC32)C1` (stereo not given in full) was tested. Which GI50 (786-0) did it give?
Answer: 35.5 µM (inactive)

Question: What about the GI50 (A498) of the same compound?
Answer: 32.4 µM (inactive)

Question: What about the GI50 (ACHN) of the same compound?
Answer: 34.1 µM (inactive)

Question: And the GI50 (EKVX)?
Answer: 13.1 µM (inactive)

Question: And the GI50 (HCC 2998)?
Answer: 48.4 µM (inactive)

Question: And the GI50 (HL-60)?
Answer: 18 µM (inactive)

Question: What about the GI50 (HT-29) of the same compound?
Answer: 34.4 µM (inactive)

Question: What about the GI50 (LOX IMVI) of the same compound?
Answer: 15.5 µM (inactive)

Question: What about the GI50 (NCI-H226) of the same compound?
Answer: 15 µM (inactive)

Question: And the GI50 (NCI-H460)?
Answer: 43.7 µM (inactive)

Question: What about the GI50 (NCI-H522) of the same compound?
Answer: 20 µM (inactive)

Question: What about the GI50 (SK-MEL-5) of the same compound?
Answer: 17.7 µM (inactive)

Question: And the GI50 (SN12C)?
Answer: 34.7 µM (inactive)

Question: What about the GI50 (SW-620) of the same compound?
Answer: 20.9 µM (inactive)

Question: Which results are given for `CCOC(=O)/C=C/C1(CCOC(C)=O)CCCCC1`?
Answer: GI50 (786-0): > 10 µM (inactive); GI50 (ACHN): > 10 µM (inactive); GI50 (DU-145): > 10 µM (inactive); GI50 (EKVX): > 10 µM (inactive); GI50 (HCC 2998): > 10 µM (inactive); GI50 (HL-60): > 10 µM (inactive); GI50 (HT-29): > 10 µM (inactive); GI50 (K562): > 10 µM (inactive); GI50 (LOX IMVI): > 10 µM (inactive); GI50 (NCI-H226): > 10 µM (inactive); GI50 (NCI-H23): > 10 µM (inactive); GI50 (NCI-H460): > 10 µM (inactive); GI50 (NCI-H522): > 10 µM (inactive); GI50 (NCI/ADR-RES): > 10 µM (inactive); GI50 (SK-MEL-5): > 10 µM (inactive); GI50 (SN12C): > 10 µM (inactive); GI50 (SW-620): > 10 µM (inactive)
